Assay results taken from DBAASP.
In brackets after ≈: the same amount, converted by molar mass.

Assays:
Test in all cases: ≥ marks a high value that may be exact or a test limit, other limits are often not marked, values filed in µg/mL are converted to µM
[1] = system: Candida albicans NCPF 1467
[2] = system: Enterococcus faecalis NCTC 12697
[3] = system: Escherichia coli NCTC 10418
[4] = system: Pseudomonas aeruginosa ATCC 27853
[5] = system: Staphylococcus aureus ATCC 12493
[6] = system: Staphylococcus aureus NCTC 10788
[7] = system: Edwardsiella piscicida FSW 910410
[8] = system: Streptococcus iniae FP5228
[9] = system: Streptococcus parauberis KSP 28
[10] = system: Streptococcus parauberis PH0710
[11] = system: Vibrio alginolyticus KCCM 2928
[12] = system: Vibrio anguillarum TR14001NF
[13] = system: Vibrio campbellii KCCM 40684
[14] = system: Vibrio harveyi ATCC 14126
[15] = system: Vibrio ordalii KCCM 41669
[16] = system: Bacillus subtilis KCTC 1021
Escherichia coli = system: Escherichia coli
[17] = system: Klebsiella pneumoniae ATCC 10031
[18] = system: Micrococcus luteus ATCC 4698
[19] = system: Pseudomonas aeruginosa ATCC 9027
[20] = system: Salmonella enterica subsp. enterica serovar Typhimurium ATCC 14028
Serratia marcescens = system: Serratia marcescens
[21] = system: Shigella dysenteriae ATCC 9752
Bacillus subtilis 168 HT = system: Bacillus subtilis 168 HT
[22] = system: Escherichia coli K12 MG1655
[23] = system: Staphylococcus aureus ST88
[24] = system: Staphylococcus haemolyticus 527
Escherichia coli BL21 = system: Escherichia coli BL21
[25] = system: Pseudomonas aeruginosa PAO1
[26] = system: Staphylococcus aureus ATCC 6538P
[27] = system: Staphylococcus aureus ATCC BAA-41
[28] = system: Staphylococcus epidermidis
[29] = system: Aspergillus oryzae NBRC 100959
[30] = system: Candida viswanathii NBRC 10321
[31] = system: Escherichia coli NBRC 3972
[32] = system: Micrococcus luteus NBRC 3333
[33] = system: Staphylococcus epidermidis NBRC 12993
[34] = system: Escherichia coli NBRC 14237
[35] = system: Saccharomyces cerevisiae NBRC 10217
[36] = system: Staphylococcus aureus NBRC 12732

## CC[C@H](C)[C@H](NC(=O)[C@H](CCCCN)NC(=O)[C@@H]1CCCN1C(=O)[C@H](CC(C)C)NC(=O)[C@@H](N)Cc1ccccc1)C(=O)N[C@@H](CC(C)C)C(=O)N[C@@H](CCCCN)C(=O)N[C@H](C(=O)N[C@@H](C)C(=O)N[C@@H](C)C(=O)N[C@@H](CCCCN)C(N)=O)C(C)C [FLPKILKVAAK]
[1]
  MIC: ≥ 256 µM
[2]
  MIC: ≥ 512 µM
[3]
  MIC: ≥ 512 µM
[4]
  MIC: > 512 µM
[5]
  MIC: ≥ 512 µM
[6]
  MIC: ≥ 256 µM

## CC[C@H](C)[C@H](NC(=O)[C@H](CCCCN)NC(=O)[C@@H](NC(=O)[C@@H](N)Cc1ccccc1)[C@@H](C)O)C(=O)N[C@@H](Cc1ccc(O)cc1)C(=O)NCC(=O)N[C@@H](CO)C(=O)N[C@@H](CCCN=C(N)N)C(=O)N[C@@H](CC(C)C)C(=O)N[C@@H](CCC(N)=O)C(=O)N[C@@H](CCCCN)C(=O)N[C@H](C(=O)N[C@@H](CC(C)C)C(=O)NCC(=O)N[C@@H](CC(N)=O)C(=O)O)C(C)C [FTKIYGSRLQKVLGN]
[7]
  MIC: ≥ 290 µM
[8]
  MIC: ≥ 51.3 µM
[9]
  MIC: ≥ 290 µM
[10]
  MIC: ≥ 103 µM
[11]
  MIC: ≥ 205 µM
[12]
  MIC: ≥ 290 µM
[13]
  MIC: ≥ 51.3 µM
[14]
  MIC: ≥ 51.3 µM
[15]
  MIC: ≥ 205 µM

## CC[C@H](C)[C@H](NC(=O)CN)C(=O)N[C@@H](CC(C)C)C(=O)N[C@@H](CC(=O)O)C(=O)N[C@H](C(=O)N[C@@H](CC(C)C)C(=O)N[C@@H](CCCCN)C(=O)N[C@@H](CCC(N)=O)C(=O)N[C@@H](Cc1ccccc1)C(=O)N[C@@H](C)C(=O)N[C@@H](CCCCN)C(=O)NCC(=O)N[C@H](C(=O)NCC(=O)N[C@@H](CCCCN)C(=O)N[C@@H](Cc1c[nH]c2ccccc12)C(=O)N[C@@H](CC(C)C)C(=O)N[C@H](C(=O)N[C@@H](CCCCN)C(=O)NCC(=O)N[C@@H](C)C(=O)N[C@@H](C)C(=O)N[C@@H](CCC(N)=O)C(=O)O)C(C)C)C(C)C)[C@@H](C)O [GILDTLKQFAKGVGKWLVKGAAQ]
[16]
  MIC: 10.3 µM (≈ 25 µg/mL)
Escherichia coli
  MIC: 10.3 µM (≈ 25 µg/mL)
[17]
  MIC: 10.3 µM (≈ 25 µg/mL)
[18]
  MIC: 1.03 µM (≈ 2.5 µg/mL)
[19]
  MIC: 51.5 µM (≈ 125 µg/mL)
[20]
  MIC: 51.5 µM (≈ 125 µg/mL)
Serratia marcescens
  MIC: ≥ 82.3 µM
[21]
  MIC: 20.6 µM (≈ 50 µg/mL)

## CC[C@H](C)[C@H](N)C(=O)NCC(=O)N[C@@H](CCCN=C(N)N)C(=O)N[C@@H](Cc1cnc[nH]1)C(=O)N[C@@H](Cc1ccccc1)C(=O)N[C@@H](CCCCN)C(=O)N[C@@H](CCCN=C(N)N)C(=O)N[C@@H](CCCN=C(N)N)C(=O)N[C@@H](CC(N)=O)C(=O)N[C@@H](CO)C(=O)N[C@H](C(=O)N[C@@H](Cc1c[nH]c2ccccc12)C(=O)NCC(=O)N[C@H](C(=O)N[C@@H](CS)C(=O)N[C@@H](Cc1c[nH]c2ccccc12)C(=O)N[C@@H](Cc1ccccc1)C(=O)O)[C@@H](C)CC)[C@@H](C)CC [IGRHFKRRNSIWGICWF]
Bacillus subtilis 168 HT
  MIC: 14.8 µM (≈ 32.2 µg/mL)
[22]
  MIC: 14.8 µM (≈ 32.2 µg/mL)
[23]
  MIC: ≥ 100 µM
[24]
  MIC: 14.8 µM (≈ 32.2 µg/mL)

## CC[C@H](C)[C@H](NC(=O)[C@H](CCCCN)NC(=O)[C@H](CCCCN)NC(=O)[C@H](Cc1ccccc1)NC(=O)[C@H](CC(C)C)NC(=O)[C@H](CCCCN)NC(=O)[C@H](Cc1c[nH]c2ccccc12)NC(=O)[C@@H](N)CCCCN)C(=O)NCC(=O)N[C@@H](C)C(=O)N[C@H](C(=O)N[C@@H](CC(C)C)C(=O)N[C@@H](CCCCN)C(=O)N[C@@H](CCCCN)C(=O)N[C@@H](CC(C)C)C(=O)O)C(C)C [KWKLFKKIGAVLKKL]
Escherichia coli BL21
  MIC: 2 µM (≈ 3.6 µg/mL)
[25]
  MIC: 2.83 µM (≈ 5.09 µg/mL)
[26]
  MIC: 5.66 µM (≈ 10.2 µg/mL)
[27]
  MIC: 8 µM (≈ 14.4 µg/mL)
[28]
  MIC: 0.354 µM (≈ 0.637 µg/mL)

## CC[C@H](C)[C@H](NC(=O)[C@H](CC(C)C)NC(=O)[C@@H](N)CCCN=C(N)N)C(=O)N[C@@H](CCCCN)C(=O)N[C@@H](CCCN=C(N)N)C(=O)N[C@@H](Cc1ccc(O)cc1)C(=O)N[C@@H](CC(C)C)C(=O)N[C@@H](CCCN=C(N)N)C(=O)N[C@@H](CCCN=C(N)N)C(=O)N[C@@H](CCSC)C(=O)N[C@@H](Cc1c[nH]c2ccccc12)C(=O)O [RLIKRYLRRMW]
[29]
  MIC: ≥ 126 µM
[30]
  MIC: ≥ 62.9 µM
[31]
  MIC: ≥ 503 µM
[32]
  MIC: ≥ 62.9 µM
[33]
  MIC: ≥ 126 µM

## CC[C@H](C)[C@H](NC(=O)[C@@H](N)[C@@H](C)O)C(=O)N[C@@H](CC(N)=O)C(=O)N[C@@H](CCCCN)C(=O)N[C@@H](CCCCN)C(=O)N[C@@H](Cc1ccccc1)C(=O)N[C@@H](CCCN=C(N)N)C(=O)N[C@@H](Cc1c[nH]c2ccccc12)C(=O)N[C@@H](Cc1cnc[nH]1)C(=O)NCC(=O)N[C@@H](CCCCN)C(=O)N[C@@H](CCCN=C(N)N)C(=O)N[C@@H](CCCCN)C(=O)N[C@@H](Cc1c[nH]c2ccccc12)C(=O)N[C@@H](Cc1c[nH]c2ccccc12)C(=O)N[C@@H](CC(C)C)C(=O)N[C@@H](CCCN=C(N)N)C(=O)N[C@@H](Cc1ccccc1)C(=O)N[C@H](C(=O)N[C@@H](CCCCN)C(=O)N[C@@H](CCC(N)=O)C(=O)O)C(C)C [TINKKFRWHGKRKWWLRFVKQ]
[34]
  MIC: 3.12 µM (≈ 8.89 µg/mL)
[35]
  MIC: 6.25 µM (≈ 17.8 µg/mL)
[36]
  MIC: 3.12 µM (≈ 8.89 µg/mL)
